Test [1] addresses T1, Bombesin receptor subtype 3 (BB3 receptor) (Homo sapiens, UniProt P32247).
T1 construct: expressed in transfected cells; host or cells: Ca2+ optimized hematopoietic cell lines (rat)
T1 sequence (P32247 1-399): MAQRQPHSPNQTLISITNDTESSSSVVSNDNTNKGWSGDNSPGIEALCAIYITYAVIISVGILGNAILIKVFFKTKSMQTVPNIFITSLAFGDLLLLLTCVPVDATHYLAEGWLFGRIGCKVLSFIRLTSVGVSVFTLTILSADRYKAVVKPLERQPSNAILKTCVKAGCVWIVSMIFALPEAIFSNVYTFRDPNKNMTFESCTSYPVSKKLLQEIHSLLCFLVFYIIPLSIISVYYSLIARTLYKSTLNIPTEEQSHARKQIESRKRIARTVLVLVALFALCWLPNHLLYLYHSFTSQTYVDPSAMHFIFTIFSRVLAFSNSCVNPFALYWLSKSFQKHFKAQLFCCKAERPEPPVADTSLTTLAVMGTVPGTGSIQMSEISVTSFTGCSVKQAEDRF
As to the kind of experiment: Ca2+ flux (FLIPR) assay, BB3 receptor, agonist/antagonist mode. The class given is cell-based. As to conditions: agonist mode. As for the experimental part:
Biological and Pharmacological Methods 1. Ca^2+ Flux Assays for the GPCRs Oxytocin Receptor (OT Receptor), Thyrotropin-Releasing Hormone Receptor (TRH Receptor) and Bombesin Receptor Subtype 3 (BB3 Receptor)
Assays were performed on a FLIPR^TETRA fluorometric imaging plate reader (Molecular Devices) with ScreenWorks Version 2 (Molecular Devices) as device operating and data analysis software.
Dose dependent agonist and antagonist activities were determined. Percentage activation and percentage inhibition values were determined.
Percentage activation was determined upon initial addition of the sample compounds followed by 10 minutes' incubation at 25° C. Following compound incubation, reference agonists were added at EC80 to determine percentage inhibition.
Reference agonists were purchased from reputable commercial vendors and prepared according to each ligand's specifications. All handling of ligands were done to ensure proper control throughout the experiments.
Example compounds were weighed on a Microbalance (Mettler MX5) and dissolved in 100% DMSO to a final concentration of 2.5 mM and subsequently diluted into the assay buffer.
The assay buffer was a supplemented HBSS (Hank's Balanced Salt Solution). HBSS was supplemented with 20 mM HEPES (4-(2-hydroxyethyl)-piperazin-1-ethansulfonic acid) and 2.5 mM Probenecid (Sigma P8761).
GPCR assays were performed using Ca^2+ optimized hematopoietic cell lines (rat) with cultures never exceeding 90% confluency. Cells were harvested and seeded (from cultures at less than 90% confluency) at 50000 cells/well for a 96-well plate (12500 cells/well for 384). After seeding, the assay plates were incubated for 45 minutes at room temperature. After room temperature incubation, the assay plates were incubated at 37° C. 5% CO2 for 24 hours prior to assaying.
All GPCR assays were performed using Fluo-8 Ca^2+ dye.
Ca^2+ dye was prepared at 1× dye concentration in GPCR assay buffer. After 24 hours of incubation, cells were washed with GPCR assay buffer, and then Ca^2+-dye (100 μL/well) was added.
The plates were incubated for 90 minutes at 30° C. 5% CO2 prior to FLIPR assay.
Compound plates were prepared to add 50 μL/well during the agonist assay mode. During the FLIPR assay, 50 μL/well from the compound plate was diluted 3-fold into the existing 100 μL/well from the dye loading step. Therefore all compounds were prepared as 3× the final concentration desired in the assay.
After completion of the first single addition assay run, assay plate was removed from the FLIPR Tetra and placed at 25° C. for 7 minutes before antagonist assay.
Using the EC80 values determined during the agonist assay, all pre-incubated sample compound and reference antagonist (if applicable) wells were stimulated at the EC80 of the reference agonist. As reference ligands for these assays their obvious natural ligands oxytocin (OT), thyrotropin-releasing hormone (TRH) and bombesin (6-14) [BN(6-14)] were used.
After the addition of the reference agonist fluorescence was monitored for 180 sec using FLIPR Tetra.
From the FLIPR data, with negative control correction enabled, the maximum statistic for each well was exported and percentage activation relative to Emax control was calculated.

In test [2] the target is T2, Human recombinant cathepsin S (Homo sapiens, UniProt P25774).
T2 construct: host or cells: murine myeloma NS0 cells
T2 sequence (P25774 115-331): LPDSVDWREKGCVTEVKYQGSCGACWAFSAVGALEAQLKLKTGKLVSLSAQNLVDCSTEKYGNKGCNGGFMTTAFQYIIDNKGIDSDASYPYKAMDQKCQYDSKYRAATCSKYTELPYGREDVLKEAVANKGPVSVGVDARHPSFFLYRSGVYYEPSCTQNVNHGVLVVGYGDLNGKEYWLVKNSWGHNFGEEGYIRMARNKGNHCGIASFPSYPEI
The conditions noted are these: reference compound of the CatS assay; 0.1 μg/ml enzyme, acetate buffer pH 4.5, 25° C.; cited from earlier work.

One may read the EC50 as the midpoint of the concentration-response curve. High values mean lower potency in that assay, low ones higher potency in that assay. In the case of `CO[C@H]1C[C@H]2COc3ccsc3-c3cc(n(C)n3)C(=O)N(C)CC[C@H](NC(=O)Cc3ccc4ccccc4c3)C(=O)N2C1` [Ex. 275, N-[(9S,11S,15S)-11-methoxy-18,21-dimethyl-14,19-dioxo-7-oxa-3-thia-13,18,21,22-tetraazatetracyclo[18.2.1.0^2,6.0^9,13]tricosa-1(22),2(6),4,20(23)-tetraen-15-yl]-2-(2-naphthyl)acetamide], in test [1], the response was half-maximal at 0.78 µM (EC50) and the “Agonist activity % activation at 12.5 μM” value stood at 60%.

With `CN1CC[C@H](NC(=O)Cc2ccc3ccccc3c2)C(=O)N2C[C@@H](O)C[C@H]2COc2ccsc2-c2cc(n(C)n2)C1=O` [Ex. 265, N-[(9S,11S,15S)-11-hydroxy-18,21-dimethyl-14,19-dioxo-7-oxa-3-thia-13,18,21,22-tetraazatetracyclo[18.2.1.0^2,6.0^9,13]tricosa-1(22),2(6),4,20(23)-tetraen-15-yl]-2-(2-naphthyl)acetamide], in test [1], it took 0.63 µM to reach a half-maximal effect (EC50) and the “Agonist activity % activation at 12.5 μM” value is 84%.

As for `CN1CC[C@H](NC(=O)Cc2cccc3ccccc23)C(=O)N2C[C@@H](O)C[C@H]2COc2ccsc2-c2cc(n(C)n2)C1=O` [Ex. 267, N-[(9S,11S,15S)-11-hydroxy-18,21-dimethyl-14,19-dioxo-7-oxa-3-thia-13,18,21,22-tetraazatetracyclo[18.2.1.0^2,6.0^9,13]tricosa-1(22),2(6),4,20(23)-tetraen-15-yl]-2-(1-naphthyl)acetamide], in test [1], the “Agonist activity % activation at 12.5 μM” value is 61%.

For orientation: IC50 means the concentration that gives 50% inhibition. Consider `CC(C)C[C@H](NC(=O)[C@H]1O[C@@H]1C(=O)O)C(=O)NCCCCN=C(N)N` [E-64], for which the half-maximal inhibitory concentration (IC50) in test [2] is 0.0014 µM.

In the case of `CN1CC[C@H](NCCc2ccc3ccccc3c2)C(=O)N2C[C@@H](O)C[C@H]2COc2ccsc2-c2cc(n(C)n2)C1=O` [Ex. 282, (9S,11S,15S)-11-hydroxy-18,21-dimethyl-15-{[2-(2-naphthyl)ethyl]amino}-7-oxa-3-thia-13,18,21,22-tetraazatetracyclo[18.2.1.0^2,6.0^9,13]tricosa-1(22),2(6),4,20(23)-tetraene-14,19-dione], the “Agonist activity % activation at 12.5 μM” value in test [1] is recorded as 39%.

The record behind these values is patent US10017481B2, “Conformationally constrained, fully synthetic macrocyclic compounds” (POLYPHOR AG, priority 2012, dated 2018).
